# Assay results reported in paper PMC12340436 (The Journal of Biological Chemistry, 2025).
# What was measured:
# [1] = target: T1, RhsP2tox (Pseudomonas aeruginosa, UniProt A0A0H2Z8A2); format: binding
# T1 construct: gene PA14_43100; N-terminal His tag
# [2] = target: T2, RhsP2tox (Pseudomonas aeruginosa, UniProt A0A0H2Z8A2, E1576Q); assay: biochemical
# T2 construct: gene PA14_43100
smiles,measurement,setting,value
NC(=O)c1ccc[n+]([C@@H]2O[C@H](COP(=O)(O)OP(=O)(O)OC[C@H]3O[C@@H](n4cnc5c(N)ncnc54)[C@H](O)[C@@H]3O)[C@@H](O)[C@H]2O)c1 [NAD^+],Kd,[1],172 ± 25 µM
same,Kd,[2],130 ± 38 µM
